Structures can show the parent of a compound that is named as a salt.

The test system of the first test is tactile allodynia in the rat Chung model. As to the kind of experiment: Chung model: reversal of tactile allodynia (von Frey hairs) after spinal nerve ligation. In kind it is in vivo. The settings on record: 300 μg/kg IP, peak at 60 min post dose. From the text: An art-accepted model or assay for measuring an analgesic effect of a compound in chronic pain (in particular peripheral neuropathy) is the model known as Kim and Chung 1992, Pain […], pp 355-363 (Chung model). This model involves the surgical ligation of the L5 (and optionally the L6) spinal nerves on one side in experimental animals. Rats recovering from the surgery gain weight and display a level of general activity similar to that of normal rats. However, these rats develop abnormalities of the foot, wherein the hindpaw is moderately everted and the toes are held together. More importantly, the hindpaw on the side affected by the surgery appears to become sensitive to low-threshold mechanical stimuli and will perceive pain instead of the faint sensation of touch. This sensitivity to normally non-painful touch, called “tactile allodynia”, develops within the first week after surgery and lasts for at least two months. The allodynia response includes lifting the affected hindpaw to escape from the stimulus, licking the paw and holding it in the air for many seconds. None of these responses is normally seen in the control group.
To produce the tactile allodynia, rats are anesthetized before surgery. The surgical site is shaved and prepared either with betadine or Novacaine. Incision is made from the thoracic vertebra X111 down toward the sacrum. Muscle tissue is separated from the spinal vertebra (left side) at the L4-S2 levels. The L6 vertebra is located and the transverse process is carefully removed with a small rongeur to expose the L4-L6 spinal nerves. The L5 and L6 spinal nerves are isolated and tightly ligated with 6-0 silk thread. The same procedure is done on the right side as a control, except no ligation of the spinal nerves is performed.
After a complete hemostasis is confirmed, the wounds are sutured. A small amount of antibiotic ointment is applied to the incised area, and the rat is transferred to the recovery plastic cage under a regulated heat-temperature lamp.
On the day of the experiment, at least seven days after the surgery, typically six rats per test group are administered the test drugs by intraperitoneal (i.p.) injection or oral gavage (p.o.). For i.p. administration, the compounds are formulated in H2O and given in a volume of 1 ml/kg body weight by injecting into the intraperitoneal cavity. For p.o. administration, the compounds are formulated in H2O and given in a volume of 1 ml/kg body weight using an 18-gauge, 3 inch gavage needle that is slowly inserted through the esophagus into the stomach.
Tactile allodynia is assessed via von Frey hairs, which are a series of fine hairs with incremental differences in stiffness. Rats are placed in a plastic cage with a wire mesh bottom and allowed to acclimate for approximately 30 minutes. To establish the pre-drug baseline, the von Frey hairs are applied perpendicularly through the mesh to the mid-plantar region of the rats' hindpaw with sufficient force to cause slight buckling and held for 6-8 seconds. The applied force has been calculated to range from 0.41 to 15.1 grams. If the paw is sharply withdrawn, it is considered a positive response. A normal animal will not respond to stimuli in this range, but a surgically ligated paw will be withdrawn in response to a 1-2 gram hair. The 50% paw withdrawal threshold is determined using the method of Dixon, W. J., Ann. Rev. Pharmacol. Toxicol. 20:441-462 (1980) hereby incorporated by reference. Tactile allodynia is measured prior to and 15, 30, and 60 minutes after drug administration. The post-drug threshold is compared to the pre-drug threshold and the percent reversal of tactile sensitivity is calculated based on a normal threshold of 15.1 grams.
Table 1 below indicates the degree of pain reversal obtained in the Chung model with exemplary compounds of the invention. […]
As for `Cl.Cl.N[C@H](C(=O)N1CC[C@H](F)C1)[C@H](O)c1ccsc1` [Compound 256, (2S,3R)- & (2R,3S)-2-Amino-1-((S)-3-fluoropyrrolidin-1-yl)-3-hydroxy-3-(thiophen-3-yl)propan-1-one dihydrochlorides], the “Peak % Pain reversal: time post dose” value came to 62% 60 min.

The same test, now with this note: Rattus norvegicus, ip, 0.5 h, 300 μg/kg IP, peak at 30 min post dose, read-out: Peak % Pain reversal: time post dose.
As for `O=C([C@H](NC1CCCCC1)[C@@H](O)c1ccncc1)N1CCCC1` (racemic) [Compound 69], the inhibition in vivo at 0.3 mg/kg worked out at 63%.
As to `N[C@@H](C(=O)N1CCCC1)[C@H](O)c1ccncc1` [Compound 220, (−)-(2R,3R)-2-amino-3-hydroxy-3-(pyridin-4-yl)-1-(pyrrolidin-1-yl)propan-1-one dihydrochloride], the inhibition in vivo at 0.3 mg/kg was 32%.
Same read-out and setting: then `N[C@@H](C(=O)N1CCOCC1)[C@@H](O)c1ccsc1` (racemic) [Compound 230, (±)-threo-2-Amino-3-hydroxy-1-morpholino-3-(thiophen-3-yl)propan-1-one hydrochloride], with 52%.
The same measure, in the same setting: then `CCCCCCCN[C@@H](C(=O)N1CCCC1)[C@@H](O)c1ccncc1` (racemic) [Compound 64, DL-threo-3-Hydroxy-2-(heptylamino)-3-(pyridin-4-yl)-1-(pyrrolidin-1-yl)propan-1-one dihydrochloride], with 100%; and `N[C@@H](C(=O)N1CCC(F)(F)C1)[C@@H](O)c1ccncc1` (racemic) [Compound 213, (±)-threo-2-Amino-1-(3,3-difluoropyrrolidin-1-yl)-3-hydroxy-3-(pyridin-4-yl)propan-1-one dihydrochloride], with 85%.

Staying with this test, now noted: Rattus norvegicus, ip, 1 h, 30 μg/kg IP, peak at 60 min post dose, read-out: Peak % Pain reversal: time post dose.
As to `NC(C(=O)N1CC[C@H](F)C1)C(O)c1ccncc1` (stereo partly drawn) [Compound 214, (2S,3R)- & (2R,3S)-2-Amino-1-((S)-3-fluoropyrrolidin-1-yl)-3-hydroxy-3-(pyridin-4-yl)propan-1-one dihydrochlorides], the inhibition in vivo at 0.03 mg/kg is 86%.

The same test, now with this note: Rattus norvegicus, ip, 1 h, 100 μg/kg IP, peak at 60 min post dose, read-out: Peak % Pain reversal: time post dose.
With `N[C@@H](C(=O)N1CCCC1)[C@@H](O)c1ccc[nH]c1=O` (racemic) [Compound 49, 3-(DL-threo-2-Amino-1-hydroxy-3-oxo-3-pyrrolidin-1-yl-propyl)-1H-pyridin-2-one hydrochloride], the inhibition in vivo at 0.1 mg/kg was 85%.

The test is the same for the next values; noted with them: Rattus norvegicus, ip, 1 h, 300 μg/kg IP, peak at 60 min post dose, read-out: Peak % Pain reversal: time post dose.
For the compound `O=C(N[C@@H](C(=O)N1CCCC1)[C@@H](O)c1ccncc1)OCc1ccccc1` (racemic) [Compound 58, Benzyl DL-threo-3-hydroxy-1-oxo-3-(pyridin-4-yl)-1-(pyrrolidin-1-yl)propan-2-ylcarbamate hydrochloride], the inhibition in vivo at 0.3 mg/kg was 75%.
Still for that read-out and setting: then `N[C@@H](C(=O)N1CCCCC1)[C@@H](O)c1ccncc1` (racemic) [Compound 35, DL-threo-2-Amino-3-hydroxy-3-(pyridin-4-yl)-1-(piperidin-1-yl)propan-1-one dihydrochloride], with 92%; and `Cn1ccnc1[C@H](O)[C@@H](N)C(=O)N1CCCC1` (racemic) [Compound 254, (±)-threo-2-Amino-3-hydroxy-3-(1-methyl-1H-imidazol-2-yl)-1-(pyrrolidin-1-yl)propan-1-one dihydrochloride], with 62%.
With `O=C([C@H](NCc1cccc(I)c1)[C@@H](O)c1ccncc1)N1CCCC1` [Compound 229, (2R,3S)-2-(3-iodobenzylamino)-3-hydroxy-3-(pyridin-4-yl)-1-(pyrrolidin-1-yl)-propan-1-one dihydrochloride], the inhibition in vivo at 0.3 mg/kg is 53%.
As for `N[C@@H](C(=O)N1CCOCC1)[C@@H](O)c1cccnc1` (racemic) [Compound 232, (±)-threo-2-Amino-3-hydroxy-1-morpholino-3-(pyridin-3-yl)propan-1-one dihydrochloride], the inhibition in vivo at 0.3 mg/kg was determined as 80%.
Same read-out and setting: then `O=CN[C@@H](C(=O)N1CCCC1)[C@@H](O)c1ccncc1` (racemic) [Compound 216, N-((±)-threo-1-hydroxy-3-oxo-1-(pyridin-4-yl)-3-(pyrrolidin-1-yl)propan-2-yl)formamide hydrochloride], with 100%.
The same measure, in the same setting: then `COc1ccc(C(=O)N[C@@H](C(=O)N2CCCC2)[C@@H](O)c2ccncc2)cc1` (racemic) [Compound 56, N-(DL-threo-1-Hydroxy-3-oxo-1-(pyridin-4-yl)-3-(pyrrolidin-1-yl)propan-2-yl)-4-methoxy-benzamide hydrochloride], with 67%; and `CN[C@@H](C(=O)N1CCCC1)[C@@H](O)c1ccncc1` (racemic) [Compound 61, DL-threo-3-Hydroxy-2-(methylamino)-3-(pyridin-4-yl)-1-(pyrrolidin-1-yl)propan-1-one dihydrochloride], with 64%.
As to `N[C@H](Cc1ccncc1)C(=O)N1CCCC1` [Compound 236, (R)-2-amino-3-(pyridin-4-yl)-1-(pyrrolidin-1-yl)propan-1-one dihydrochloride], the inhibition in vivo at 0.3 mg/kg came out at 32%.
Consider `N[C@@H](C(=O)N1CCCC1)[C@@H](O)c1ccncc1` [Compound 203, (−)-(2R,3S)-2-Amino-3-hydroxy-3-(pyridin-4-yl)-1-(pyrrolidin-1-yl)propan-1-one dihydrochloride], for which the inhibition in vivo at 0.3 mg/kg was 87%.
Still for that read-out and setting: then `NC(C(=O)N1CCCC1)C(=NO)c1ccncc1` (racemic) [Compound 224, (±)-2-Amino-3-(hydroxyimino)-3-(pyridin-4-yl)-1-(pyrrolidin-1-yl)propan-1-one dihydrochloride], with 51%; and `O=C(N[C@@H](C(=O)N1CCCC1)[C@@H](O)c1ccncc1)c1ccccc1` (racemic) [Compound 55, N-(DL-threo-1-Hydroxy-3-oxo-1-(pyridin-4-yl)-3-(pyrrolidin-1-yl)propan-2-yl)benzamide hydrochloride], with 58%.
With `CCCCCCCCCC(=O)N[C@@H](C(=O)N1CCCC1)[C@@H](O)c1ccncc1` (racemic) [Compound 59, N-(DL-threo-3-hydroxy-1-oxo-3-(pyridin-4-yl)-1-(pyrrolidin-1-yl)propan-2-yl)decanamide hydrochloride], the inhibition in vivo at 0.3 mg/kg amounted to 92%.
Same read-out and setting: for `CCN(CC)C(=O)[C@H](N)[C@@H](O)c1ccncc1` (racemic) [Compound 40, DL-threo-2-Amino-N,N-diethyl-3-hydroxy-3-(pyridin-4-yl)propanamide dihydrochloride] the value was 47%; for `NC(C(=O)N1CCCC1)C(O)c1cccnc1` (single isomer, unassigned; (-)) [Compound 207, (−)-threo-2-Amino-3-hydroxy-3-(pyridin-3-yl)-1-(pyrrolidin-1-yl)propan-1-one dihydrochloride], 96%.

The test is the same for the next values; noted with them: Rattus norvegicus, po, 1 h, 30 μg/kg PO, peak at 60 min post dose, read-out: Peak % Pain reversal: time post dose.
Take `N[C@@H](C(=O)N1CCCC1)[C@@H](O)c1ccsc1` (racemic) [Compound 23, DL-threo-2-Amino-3-hydroxy-1-(pyrrolidin-1-yl)-3-(thiophen-3-yl)propan-1-one hydrochloride]: the inhibition in vivo at 0.03 mg/kg turned out to be 100%.

The test is the same for the next values; noted with them: Rattus norvegicus, po, 1 h, 300 μg/kg PO, peak at 60 min post dose, read-out: Peak % Pain reversal: time post dose.
As to `O=C([C@H](NCc1ccc(Cl)c(Cl)c1)[C@@H](O)c1ccncc1)N1CCCC1` (racemic) [Compound 68, DL-threo-2-(3,4-Dichlorobenzylamino)-3-hydroxy-3-(pyridin-4-yl)-1-(pyrrolidin-1-yl)propan-1-one dihydrochloride], the inhibition in vivo at 0.3 mg/kg was 94%.

(Values after patent US20130202653A1, “3-ARYL-3-HYDROXY-2-AMINO-PROPIONIC ACID AMIDES, 3-HETEROARYL-3-HYDROXY-2-AMINOPROPIONIC ACID AMIDES AND RELATED COMPOUNDS HAVING ANALGESIC AND/OR IMMUNO STIMULANT ACTIVITY” (Allergan, Inc., priority 2005, published 2013).)
